In patent publication US8722849B2, “Polypeptides” (Novo Nordisk A/S, priority 2011, dated 2014):
Starred links: 1 amine or outer side, 2 acyl side, 3 side chain; linkers in the order of their positions; H or OH if unused. Positions of bridges follow the written chain, without caps; N, C: chain ends. Residues, ends and D or L forms follow the SMILES beside them. Groups on a side chain read outwards from the residue. *: point of attachment. C20 diacid = O=C(O)CCCCCCCCCCCCCCCCCCC(=O)*; C18 diacid = O=C(O)CCCCCCCCCCCCCCCCC(=O)*; γGlu = O=C(O)[C@H](CCC(=O)[*:2])N[*:1]; AEEA = NCCOCCOCC(=O)O

Assays:
[1] = biological target: T1, rat amylin 3(a) receptor (rat calcitonin(a) receptor + rat RAMP3) (Rattus norvegicus, UniProt P32214+Q9JJ73); assay: Assay (II)b functional cAMP FlashPlate assay, rat amylin receptor; assay type: cell-based; conditions: Table 11
T1 construct: expressed in transfected cells; host or cells: BHK tk'ts 13
T1 sequence (P32214 25-479 isoform P32214-2 limits assumed): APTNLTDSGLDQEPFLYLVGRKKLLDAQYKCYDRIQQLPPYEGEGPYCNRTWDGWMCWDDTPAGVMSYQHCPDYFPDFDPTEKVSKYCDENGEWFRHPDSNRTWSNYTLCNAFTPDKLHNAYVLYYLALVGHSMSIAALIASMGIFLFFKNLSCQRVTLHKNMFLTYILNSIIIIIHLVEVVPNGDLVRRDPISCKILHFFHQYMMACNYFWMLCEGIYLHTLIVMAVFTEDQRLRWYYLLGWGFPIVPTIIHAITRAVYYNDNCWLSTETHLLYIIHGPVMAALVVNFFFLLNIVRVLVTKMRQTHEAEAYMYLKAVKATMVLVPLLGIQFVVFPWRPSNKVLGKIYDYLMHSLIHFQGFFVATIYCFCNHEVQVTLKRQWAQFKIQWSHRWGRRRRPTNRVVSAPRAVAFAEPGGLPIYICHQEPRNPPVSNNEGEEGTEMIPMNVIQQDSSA
T1 sequence (Q9JJ73 23-147 partner): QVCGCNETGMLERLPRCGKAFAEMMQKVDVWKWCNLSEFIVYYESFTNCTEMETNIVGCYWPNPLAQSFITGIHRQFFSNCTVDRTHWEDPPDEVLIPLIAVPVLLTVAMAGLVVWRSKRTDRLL
Procedure, shortened: (§1)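 BHK tk'ts 13 cells transiently transfected with rat calcitonin(a) receptor, alone or with rat RAMP3 (amylin 3(a)), were stimulated 24 hours later with sample for 30 min in buffer containing IBMX. cAMP measured by competitive radioactive FlashPlate assay, scintillation read after 3 h detection incubation.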

[2] = Assay (III) ThT fibrillation assay for physical stability; assay type: physicochemical
Procedure, shortened: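 Freshly prepared formulations, pH-adjusted, with 1 μM ThT; four or eight replicates incubated at 37 °C under 960 rpm orbital shaking. Fluorescence (ex 444/em 485 nm) read every 20 min; […]. Peptide concentration measured by RP-HPLC before and after the run.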

[3] = biological target: T2, rat calcitonin (a) receptor (Rattus norvegicus, UniProt P32214); assay: Assay (II)b functional cAMP FlashPlate assay, rat calcitonin receptor; assay type: cell-based; conditions: Table 11; read-out: CTa receptor rat EC50
T2 construct: expressed in transfected cells; host or cells: BHK tk'ts 13
T2 sequence (P32214 25-479 isoform P32214-2 limits assumed): T1 sequence (P32214 25-479 isoform P32214-2 limits assumed)
Procedure, shortened: as §1

Row | SMILES | EC50 [1] [nM] | ThT pH 4.0 lag time ([2]; ThT fibrillation assay) [h] | ThT pH 4.0 lag time (h) ([2]; ThT fibrillation assay) | EC50 [3] [nM] | ThT pH 4.0 lag time ([2]; Table 8) [h] | ThT pH 4.0 lag time ([2]; Table 9) [h]
1 | CC[C@H](C)[C@H](NC(=O)[C@@H]1CCCN1C(=O)CNC(=O)[C@H](Cc1ccccc1)NC(=O)[C@H](CC(N)=O)NC(=O)[C@H](CC(N)=O)NC(=O)[C@H](CO)NC(=O)[C@H](CO)NC(=O)[C@H](Cc1c[nH]cn1)NC(=O)[C@H](Cc1c[nH]cn1)NC(=O)[C@H](CC(C)C)NC(=O)[C@H](Cc1ccccc1)NC(=O)[C@H](CCC(=O)O)NC(=O)[C@H](C)NC(=O)[C@H](CC(C)C)NC(=O)[C@H](CCCNC(=N)N)NC(=O)[C@H](CCC(N)=O)NC(=O)[C@@H](NC(=O)[C@H](C)NC(=O)[C@@H]1CSSC[C@H](NC(=O)[C@H](Cc2c[nH]cn2)NC(=O)[C@H](Cc2c[nH]cn2)NC(=O)[C@H](Cc2c[nH]cn2)NC(=O)CC[C@H](NC(=O)CCCCCCCCCCCCCCCCCCC(=O)O)C(=O)O)C(=O)N[C@@H](Cc2c[nH]cn2)C(=O)N[C@@H]([C@@H](C)O)C(=O)N[C@@H](C)C(=O)N[C@@H]([C@@H](C)O)C(=O)N1)[C@@H](C)O)C(=O)N[C@@H](CC(C)C)C(=O)N1CCC[C@H]1C(=O)N1CCC[C@H]1C(=O)N[C@H](C(=O)N[C@@H](CC(N)=O)C(=O)N[C@H](C(=O)NCC(=O)N[C@@H](CO)C(=O)N[C@@H](Cc1c[nH]cn1)C(=O)N[C@H](C(=O)N[C@@H](Cc1ccc(O)cc1)C(N)=O)[C@@H](C)O)C(C)C)[C@@H](C)O [Example 32, N-alpha-[(S)-4-Carboxy-4-(19-carboxynonadecanoylamino)butyryl]-His-His-[His1,His3,Glu14,His17,His35]-pramlintide] ({C20 diacid-γGlu}-HHHCHTATCATQRLAEFLHHSSNNFGPILPPTNVGSHTY-NH2; disulfide 4-9 (inferred)) | 0.401 | >45 | >45 | 4.87 | – | –
2 | CC[C@H](C)[C@H](NC(=O)[C@@H]1CCCN1C(=O)CNC(=O)[C@H](Cc1ccccc1)NC(=O)[C@H](CC(N)=O)NC(=O)[C@H](CC(N)=O)NC(=O)[C@H](CO)NC(=O)[C@H](CO)NC(=O)[C@H](Cc1c[nH]cn1)NC(=O)[C@H](Cc1c[nH]cn1)NC(=O)[C@H](CC(C)C)NC(=O)[C@H](Cc1ccccc1)NC(=O)[C@H](CCC(=O)O)NC(=O)[C@H](C)NC(=O)[C@H](CC(C)C)NC(=O)[C@H](CCCNC(=N)N)NC(=O)[C@H](CCC(N)=O)NC(=O)[C@@H](NC(=O)[C@H](C)NC(=O)[C@@H]1CSSC[C@H](NC(=O)[C@H](Cc2c[nH]cn2)NC(=O)[C@H](Cc2c[nH]cn2)NC(=O)[C@H](Cc2c[nH]cn2)NC(=O)CC[C@H](NC(=O)CCCCCCCCCCCCCCCCCCC(=O)O)C(=O)O)C(=O)N[C@@H](CC(N)=O)C(=O)N[C@@H]([C@@H](C)O)C(=O)N[C@@H](C)C(=O)N[C@@H]([C@@H](C)O)C(=O)N1)[C@@H](C)O)C(=O)N[C@@H](CC(C)C)C(=O)N1CCC[C@H]1C(=O)N1CCC[C@H]1C(=O)N[C@H](C(=O)N[C@@H](CC(N)=O)C(=O)N[C@H](C(=O)NCC(=O)N[C@@H](CO)C(=O)N[C@@H](CCCNC(=N)N)C(=O)N[C@H](C(=O)N[C@@H](Cc1ccc(O)cc1)C(N)=O)[C@@H](C)O)C(C)C)[C@@H](C)O [Example 21, N-alpha-[(S)-4-Carboxy-4-(19-carboxynonadecanoylamino)butyryl]-His-His-[His1,Glu14,His17,Arg35]-pramlintide] ({C20 diacid-γGlu}-HHHCNTATCATQRLAEFLHHSSNNFGPILPPTNVGSRTY-NH2; disulfide 4-9 (inferred)) | 0.133 | – | 1 | 1.34 | – | –
3 | CC[C@H](C)[C@H](NC(=O)[C@@H]1CCCN1C(=O)CNC(=O)[C@H](Cc1ccccc1)NC(=O)[C@H](CC(N)=O)NC(=O)[C@H](CC(N)=O)NC(=O)[C@H](CO)NC(=O)[C@H](CO)NC(=O)[C@H](Cc1c[nH]cn1)NC(=O)[C@H](CCCNC(=N)N)NC(=O)[C@H](CC(C)C)NC(=O)[C@H](Cc1ccccc1)NC(=O)[C@H](CCC(=O)O)NC(=O)[C@H](C)NC(=O)[C@H](CC(C)C)NC(=O)[C@H](CCCNC(=N)N)NC(=O)[C@H](CCC(N)=O)NC(=O)[C@@H](NC(=O)[C@H](C)NC(=O)[C@@H]1CSSC[C@H](NC(=O)[C@H](Cc2c[nH]cn2)NC(=O)CC[C@H](NC(=O)CCCCCCCCCCCCCCCCCCC(=O)O)C(=O)O)C(=O)N[C@@H](CC(N)=O)C(=O)N[C@@H]([C@@H](C)O)C(=O)N[C@@H](C)C(=O)N[C@@H]([C@@H](C)O)C(=O)N1)[C@@H](C)O)C(=O)N[C@@H](CC(C)C)C(=O)N1CCC[C@H]1C(=O)N1CCC[C@H]1C(=O)N[C@H](C(=O)N[C@@H](CC(N)=O)C(=O)N[C@H](C(=O)NCC(=O)N[C@@H](CO)C(=O)N[C@@H](CC(N)=O)C(=O)N[C@H](C(=O)N1CCC[C@H]1C(N)=O)[C@@H](C)O)C(C)C)[C@@H](C)O [Example 90, N-alpha-[(S)-4-Carboxy-4-(19-carboxynonadecanoylamino)butyryl]-[His1,Glu14,Arg17,Pro37]-pramlintide] ({C20 diacid-γGlu}-HCNTATCATQRLAEFLRHSSNNFGPILPPTNVGSNTP-NH2; disulfide 2-7 (inferred); C-terminus assumed) | 0.217 | >45 | >45 | 0.128 | >45 | >45

The next lines start with the values.

Row | EC50 [1] [nM] | ThT pH 4.0 lag time ([2]; ThT fibrillation assay) [h] | ThT pH 4.0 lag time (h) ([2]; ThT fibrillation assay) | EC50 [3] [nM] | ThT pH 4.0 lag time ([2]; Table 8) [h] | ThT pH 4.0 lag time ([2]; Table 9) [h] | SMILES
4 | 0.052 | >45 | >45 | 0.167 | >45 | – | CC[C@H](C)[C@H](NC(=O)[C@H](CCCCNC(=O)COCCOCCNC(=O)COCCOCCNC(=O)CC[C@H](NC(=O)CCCCCCCCCCCCCCCCC(=O)O)C(=O)O)NC(=O)CNC(=O)[C@H](Cc1ccccc1)NC(=O)[C@H](CC(N)=O)NC(=O)[C@H](CC(N)=O)NC(=O)[C@H](CO)NC(=O)[C@H](CO)NC(=O)[C@H](Cc1c[nH]cn1)NC(=O)[C@H](Cc1c[nH]cn1)NC(=O)[C@H](CC(C)C)NC(=O)[C@H](Cc1ccccc1)NC(=O)[C@H](CCC(=O)O)NC(=O)[C@H](C)NC(=O)[C@H](CC(C)C)NC(=O)[C@H](CCCNC(=N)N)NC(=O)[C@H](CCC(N)=O)NC(=O)[C@@H](NC(=O)[C@H](C)NC(=O)[C@@H]1CSSC[C@H](NC(=O)[C@@H](N)CCCCN)C(=O)N[C@@H](CC(N)=O)C(=O)N[C@@H]([C@@H](C)O)C(=O)N[C@@H](C)C(=O)N[C@@H]([C@@H](C)O)C(=O)N1)[C@@H](C)O)C(=O)N[C@@H](CC(C)C)C(=O)N1CCC[C@H]1C(=O)N1CCC[C@H]1C(=O)N[C@H](C(=O)N[C@@H](CC(N)=O)C(=O)N[C@H](C(=O)NCC(=O)N[C@@H](CO)C(=O)N[C@@H](CC(N)=O)C(=O)N[C@H](C(=O)N[C@@H](Cc1ccc(O)cc1)C(N)=O)[C@@H](C)O)C(C)C)[C@@H](C)O [Example 73, N-epsilon25-[2-(2-{2-[2-(2-{2-[(S)-4-Carboxy-4-(17-carboxyheptadecanoylamino)butyrylamino]ethoxy}ethoxy)acetylamino]ethoxy}ethoxy)acetyl]-[Glu14,His17,Lys25]-pramlintide] (H-KCNTATCATQRLAEFLHHSSNNFGK([AEEA-AEEA-γGlu-C18 diacid])ILPPTNVGSNTY-NH2; disulfide 2-7 (inferred); N-terminus and C-terminus assumed)
5 | 0.643 | – | 16 | 4.97 | – | – | CC[C@H](C)[C@H](NC(=O)[C@@H]1CCCN1C(=O)CNC(=O)[C@H](Cc1ccccc1)NC(=O)[C@H](CC(N)=O)NC(=O)[C@H](CC(N)=O)NC(=O)[C@H](CO)NC(=O)[C@H](CO)NC(=O)[C@H](Cc1c[nH]cn1)NC(=O)[C@H](Cc1c[nH]cn1)NC(=O)[C@H](CC(C)C)NC(=O)[C@H](Cc1ccccc1)NC(=O)[C@H](CCC(=O)O)NC(=O)[C@H](C)NC(=O)[C@H](CC(C)C)NC(=O)[C@H](CCCNC(=N)N)NC(=O)[C@H](CCC(N)=O)NC(=O)[C@@H](NC(=O)[C@H](C)NC(=O)[C@@H]1CSSC[C@H](NC(=O)[C@H](CCCCN)NC(=O)[C@H](CCC(=O)O)NC(=O)CC[C@H](NC(=O)CCCCCCCCCCCCCCCCCCC(=O)O)C(=O)O)C(=O)N[C@@H](CC(N)=O)C(=O)N[C@@H]([C@@H](C)O)C(=O)N[C@@H](C)C(=O)N[C@@H]([C@@H](C)O)C(=O)N1)[C@@H](C)O)C(=O)N[C@@H](CC(C)C)C(=O)N1CCC[C@H]1C(=O)N1CCC[C@H]1C(=O)N[C@H](C(=O)N[C@@H](CC(N)=O)C(=O)N[C@H](C(=O)NCC(=O)N[C@@H](CO)C(=O)N[C@@H](Cc1c[nH]cn1)C(=O)N[C@H](C(=O)N[C@@H](Cc1ccc(O)cc1)C(N)=O)[C@@H](C)O)C(C)C)[C@@H](C)O [Example 56, N-alpha-[(S)-4-Carboxy-4-(19-carboxynonadecanoylamino)butyryl]-Glu-[Glu14,His17,His35]-pramlintide] ({C20 diacid-γGlu}-EKCNTATCATQRLAEFLHHSSNNFGPILPPTNVGSHTY-NH2; disulfide 3-8 (inferred))
